Experimental data as given in ChEMBL document CHEMBL1144862, “A mechanism for substrate-Induced formation of 6-hydroxyflavin mononucleotide catalyzed by C30A trimethylamine dehydrogenase” (Bioorg Med Chem Lett, 2003).

Test: Kcat value was determined
Format: ADME

- k cat: < 2
SMILES: Cc1cc2c(nc3c(=O)[nH]c(=O)nc-3n2C[C@@H](O)[C@@H](O)[C@@H](O)COP(=O)(O)O)c(O)c1C
